Experimental data published in ChEMBL document CHEMBL1201862, “PubChem BioAssay data set” (2004).
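Method: 48-hour compound exposure of cells in 96-well plates, five concentrations, linear interpolation of endpoints. The concentration for 50% growth inhibition is given as GI50.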 Activity calls are given as the source filed them. No stated cut-off is given here; in the data, active = GI50 up to about 1.1 µM and inactive = higher.

Columns and labels:
Assay in all cases: NCI-60 cell line screen, 48 h
[1] = test system: DU-145
[2] = test system: MDA-MB-231
[3] = test system: OVCAR-4
[4] = test system: HCT-116
[5] = test system: UACC-62
[6] = test system: HOP-92
[7] = test system: MDA-N
[8] = test system: OVCAR-3
[9] = test system: OVCAR-5
[10] = test system: K562
[11] = test system: LOX IMVI
[12] = test system: SW-620
[13] = test system: PC-3
[14] = test system: SN12C
[15] = test system: HCT-15
[16] = test system: U-251
[17] = test system: SK-MEL-5
[18] = test system: NCI-H23
[19] = test system: CAKI-1

Structure (SMILES): COc1ccc(Cc2cc(Cc3ccc(OC)cc3)cc(Cc3ccc(OC)cc3)c2)cc1
- GI50 [1]: > 100 µM (inactive)
- GI50 [2]: > 100 µM (inactive)
- GI50 [3]: > 100 µM (inactive)
- GI50 [4]: > 100 µM (inactive)
- GI50 [5]: > 100 µM (inactive)
- GI50 [6]: > 100 µM (inactive)
- GI50 [7]: 6.58 µM (inactive)
- GI50 [8]: > 100 µM (inactive)
- GI50 [9]: > 100 µM (inactive)
- GI50 [10]: > 100 µM (inactive)
- GI50 [11]: > 100 µM (inactive)
- GI50 [12]: > 100 µM (inactive)
- GI50 [13]: > 100 µM (inactive)
- GI50 [14]: > 100 µM (inactive)
- GI50 [15]: > 100 µM
- GI50 [16]: > 100 µM (inactive)

Structure (SMILES): COc1cc(C(c2cc(OC)c(OC)c(OC)c2)N2C(=O)CCC2C(=O)O)cc(OC)c1OC (centres undefined)
- GI50 [17]: > 100 µM (inactive)
- GI50 [1]: > 100 µM (inactive)
- GI50 [2]: > 100 µM (inactive)
- GI50 [3]: > 100 µM (inactive)
- GI50 [18]: > 100 µM (inactive)
- GI50 [4]: > 100 µM (inactive)
- GI50 [5]: > 100 µM (inactive)
- GI50 [6]: > 100 µM (inactive)
- GI50 [7]: > 100 µM (inactive)
- GI50 [8]: > 100 µM (inactive)
- GI50 [9]: > 100 µM (inactive)
- GI50 [10]: > 100 µM (inactive)
- GI50 [12]: > 100 µM (inactive)
- GI50 [13]: > 100 µM (inactive)
- GI50 [14]: > 100 µM (inactive)
- GI50 [19]: > 100 µM (inactive)
- GI50 [15]: > 100 µM
- GI50 [16]: > 100 µM (inactive)

Structure (SMILES): O=C1Nc2ccccc2/C1=N/Nc1nc(-c2ccccc2)cs1
- GI50 [17]: 25.8 µM (inactive)
- GI50 [1]: 35.5 µM (inactive)
- GI50 [2]: 28.3 µM (inactive)
- GI50 [3]: 40.7 µM (inactive)
- GI50 [18]: 47.6 µM (inactive)
- GI50 [4]: 31.9 µM (inactive)
- GI50 [6]: 35.7 µM (inactive)
- GI50 [7]: 62.4 µM (inactive)
- GI50 [8]: 26.4 µM (inactive)
- GI50 [9]: 58.3 µM (inactive)
- GI50 [11]: 44.6 µM (inactive)
- GI50 [12]: > 100 µM (inactive)
- GI50 [13]: 19.2 µM (inactive)
- GI50 [14]: 27.1 µM (inactive)
- GI50 [19]: 18.3 µM (inactive)
- GI50 [15]: 23.1 µM
- GI50 [16]: 24.2 µM (inactive)

Structure (SMILES): c1ccc2c(c1)N[C@@H]1c3[nH]c4ccccc4c3CC[C@H]21
- GI50 [17]: 14.3 µM (inactive)
- GI50 [1]: 16.9 µM (inactive)
- GI50 [2]: 15.5 µM (inactive)
- GI50 [18]: 15.8 µM (inactive)
- GI50 [4]: 14.7 µM (inactive)
- GI50 [5]: 17.6 µM (inactive)
- GI50 [6]: 14.4 µM (inactive)
- GI50 [7]: 19.6 µM (inactive)
- GI50 [8]: 13.9 µM (inactive)
- GI50 [9]: 13.2 µM (inactive)
- GI50 [10]: 14 µM (inactive)
- GI50 [11]: 16 µM (inactive)
- GI50 [12]: 17.7 µM (inactive)
- GI50 [13]: 11.9 µM (inactive)
- GI50 [14]: 15.2 µM (inactive)
- GI50 [19]: 18.2 µM (inactive)
- GI50 [15]: 23 µM
- GI50 [16]: 14.2 µM (inactive)

Structure (SMILES): COC(=O)C1(NC(=O)C(Cc2ccccc2)N(C(=O)OC(C)(C)C)C(=O)OC(C)(C)C)CCCC1 (centres undefined)
- GI50 [17]: > 100 µM (inactive)
- GI50 [1]: > 100 µM (inactive)
- GI50 [2]: 80.9 µM (inactive)
- GI50 [18]: 30.5 µM (inactive)
- GI50 [4]: 55.7 µM (inactive)
- GI50 [5]: 20.1 µM (inactive)
- GI50 [6]: 59.2 µM (inactive)
- GI50 [7]: > 100 µM (inactive)
- GI50 [9]: 58.6 µM (inactive)
- GI50 [10]: 43 µM (inactive)
- GI50 [11]: > 100 µM (inactive)
- GI50 [12]: > 100 µM (inactive)
- GI50 [13]: 31 µM (inactive)
- GI50 [14]: > 100 µM (inactive)
- GI50 [15]: 66.4 µM
- GI50 [16]: 49.5 µM (inactive)

Structure (SMILES): NC(=S)N/N=C1\CCCCC1C(O)(C(F)(F)Cl)C(F)(F)Cl (centres undefined)
- GI50 [17]: > 10 µM (inactive)
- GI50 [1]: > 10 µM (inactive)
- GI50 [2]: > 10 µM (inactive)
- GI50 [3]: > 10 µM (inactive)
- GI50 [18]: > 10 µM (inactive)
- GI50 [4]: > 10 µM (inactive)
- GI50 [5]: > 10 µM (inactive)
- GI50 [6]: > 10 µM (inactive)
- GI50 [7]: > 10 µM (inactive)
- GI50 [8]: > 10 µM (inactive)
- GI50 [9]: > 10 µM (inactive)
- GI50 [10]: > 10 µM (inactive)
- GI50 [11]: > 10 µM (inactive)
- GI50 [12]: > 10 µM (inactive)
- GI50 [13]: > 10 µM (inactive)
- GI50 [14]: > 10 µM (inactive)
- GI50 [15]: > 10 µM
- GI50 [16]: > 10 µM (inactive)

Structure (SMILES): O=C(O)C1SCCS1
- GI50 [17]: > 100 µM (inactive)
- GI50 [1]: > 100 µM (inactive)
- GI50 [2]: > 100 µM (inactive)
- GI50 [3]: 31.8 µM (inactive)
- GI50 [18]: > 100 µM (inactive)
- GI50 [4]: > 100 µM (inactive)
- GI50 [5]: > 100 µM (inactive)
- GI50 [6]: > 100 µM (inactive)
- GI50 [7]: > 100 µM (inactive)
- GI50 [8]: > 100 µM (inactive)
- GI50 [9]: > 100 µM (inactive)
- GI50 [10]: > 100 µM (inactive)
- GI50 [11]: > 100 µM (inactive)
- GI50 [12]: > 100 µM (inactive)
- GI50 [13]: > 100 µM (inactive)
- GI50 [14]: > 100 µM (inactive)
- GI50 [15]: > 100 µM
- GI50 [16]: > 100 µM (inactive)

Structure (SMILES): CCOC1Oc2ccccc2-c2nc(SC)ncc21 (centres undefined)
- GI50 [17]: 52.5 µM (inactive)
- GI50 [1]: 96.6 µM (inactive)
- GI50 [2]: 62.8 µM (inactive)
- GI50 [3]: > 100 µM (inactive)
- GI50 [18]: > 100 µM (inactive)
- GI50 [4]: 83.2 µM (inactive)
- GI50 [5]: 75.5 µM (inactive)
- GI50 [6]: 29.2 µM (inactive)
- GI50 [7]: 64.1 µM (inactive)
- GI50 [8]: > 100 µM (inactive)
- GI50 [9]: > 100 µM (inactive)
- GI50 [11]: 80.7 µM (inactive)
- GI50 [12]: > 100 µM (inactive)
- GI50 [13]: > 100 µM (inactive)
- GI50 [14]: 89.7 µM (inactive)
- GI50 [19]: > 100 µM (inactive)
- GI50 [15]: 79.3 µM
- GI50 [16]: > 100 µM (inactive)
